# In the supplement of paper PMC13380429:
# How the values were obtained:
# Conditions in all cases: 72 h
# Caco-2 [1] = test: cell viability relative to DMSO; higher = less toxic
# Calu-3 [2] = test: as above
# HepG2 [3] = test: as above
# U2OS [4] = test: as above
# Vero E6 [5] = test: as above
# Caco-2 [6] = test: relative viability EC50 (midpoint between 100% and the lowest measured viability); higher = less toxic
# Calu-3 [7] = test: as above
# HepG2 [8] = test: as above
# U2OS [9] = test: as above
# Vero E6 [10] = test: as above
# Caco-2 [11] = test: drug sensitivity score (DSS) for viability; higher = more toxic; extreme values may be limits of the assay
# Calu-3 [12] = test: as above
# HepG2 [13] = test: as above
# U2OS [14] = test: as above
# Vero E6 [15] = test: as above
Structure (SMILES),cell viability (Caco-2 [1]; 1 nM) [%],cell viability (Caco-2 [1]; 10 nM) [%],cell viability (Caco-2 [1]; 100 nM) [%],cell viability (Caco-2 [1]; 1000 nM) [%],cell viability (Caco-2 [1]; 10000 nM) [%],cell viability (Calu-3 [2]; 1 nM) [%],cell viability (Calu-3 [2]; 10 nM) [%],cell viability (Calu-3 [2]; 100 nM) [%],cell viability (Calu-3 [2]; 1000 nM) [%],cell viability (Calu-3 [2]; 10000 nM) [%],cell viability (HepG2 [3]; 1 nM) [%],cell viability (HepG2 [3]; 10 nM) [%],cell viability (HepG2 [3]; 100 nM) [%],cell viability (HepG2 [3]; 1000 nM) [%],cell viability (HepG2 [3]; 10000 nM) [%],cell viability (U2OS [4]; 1 nM) [%],cell viability (U2OS [4]; 10 nM) [%],cell viability (U2OS [4]; 100 nM) [%],cell viability (U2OS [4]; 1000 nM) [%],cell viability (U2OS [4]; 10000 nM) [%],cell viability (Vero E6 [5]; 1 nM) [%],cell viability (Vero E6 [5]; 10 nM) [%],cell viability (Vero E6 [5]; 100 nM) [%],cell viability (Vero E6 [5]; 1000 nM) [%],cell viability (Vero E6 [5]; 10000 nM) [%],relative viability EC50 (Caco-2 [6]) [µM],relative viability EC50 (Calu-3 [7]) [µM],relative viability EC50 (HepG2 [8]) [µM],relative viability EC50 (U2OS [9]) [µM],relative viability EC50 (Vero E6 [10]) [µM],drug sensitivity score (Caco-2 [11]),drug sensitivity score (Calu-3 [12]),drug sensitivity score (HepG2 [13]),drug sensitivity score (U2OS [14]),drug sensitivity score (Vero E6 [15])
"c1ccc2c(Cc3c[nH]c4ccccc34)c[nH]c2c1 [3,3'-diindolylmethane]",108,117,91.3,117,102,104,98.5,97.2,104,98.6,93.6,101,97,86.8,91.7,100,102,101,104,94.3,99,102,100,93.4,89.3,> 10,> 10,> 10,> 10,> 10,0,0,1.1,0,0.1
O=[N+]([O-])c1cccc2c(Br)n[nH]c12 [3-bromo-7-nitroindazole],106,102,93.8,104,99.3,102,88.4,97.3,87,98.2,94.4,99,98.3,97.5,102,97.6,101,99,104,98.8,100,97.5,98.6,95.8,91.2,> 10,> 10,> 10,> 10,> 10,0,0,0,0,0
NS(=O)(=O)c1ccc2c(c1)C1C=CCC1C(c1ccc(Br)cc1)N2 (stereo not given) [4BP-TQS],102,97.1,99.6,98.5,97.1,110,89.3,101,96.3,105,101,105,89.5,91.5,94,97.8,98.6,103,96.6,97.5,104,99.1,102,104,100,> 10,> 10,> 10,> 10,> 10,0,0,0.2,0,0
CCCN(CCC)[C@H]1CCc2ccc(O)cc2C1 [7-hydroxy-DPAT],96.5,95.4,106,100,96.4,92.7,89.7,98.7,102,96,112,106,92.8,99.9,99.5,101,97.1,101,104,103,101,105,101,104,99.4,> 10,> 10,> 10,> 10,> 10,0,0,0,0,0
C/C=C1\[C@H]2C=C(C)C[C@]1(N)c1ccc(=O)[nH]c1C2 [(-)-Huperzine A],103,97.7,90.6,100,107,91,96.7,96.1,106,101,106,97.4,102,93,97.5,95.1,101,98.8,103,98.3,93,96.8,98,90.7,107,> 10,> 10,> 10,> 10,> 10,0,0,0,0,0
COCC1(CO)C(=O)C2CCN1CC2 (stereo not given) [APR-246],99.5,94.7,95.1,94.2,94.6,96.7,87.5,111,90.4,94.5,93,99.7,96.6,112,91.8,100,94.9,99.8,96.3,99.5,97.1,99.3,96.6,97.8,93.1,> 10,> 10,> 10,> 10,> 10,0,0,0,0,0
C=CC(=O)Nc1cccc(Nc2nc(Nc3ccc(OCCOC)cc3)ncc2F)c1 [AVL-292],85.2,90.8,102,78.3,21.5,100,106,92.2,97.2,27.2,101,95.7,101,80.5,29.7,100,100,94.9,91.5,9,96.9,94.5,94.9,82.5,11.9,1.47,2.87,1.47,2.39,1.74,7.6,4.4,6.8,6.4,7.7
